# Patent US10253085B2, “CD31 peptides for the treatment of thrombotic or autoimmune disorders” (INSERM (INSTITUT NATIONAL DE LA SANTE ET DE LA RECHERCHE …, priority 2008, dated 2019)
# Residues, ends and D or L forms follow the SMILES beside them.
# Legend:
# [1] = tested on: CD4+ cells from C57Bl6 mice; assay: CD4+ T cell activation, early activation marker CD69 by flow cytometry; assay type: cell-based, mouse; conditions: 18 hours culture
# Procedure: Alternatively, the T-cell proliferation assay may comprise comparing expression levels of the early activation marker CD69 in T-cells cultured either in the presence or in the absence of the compound to be tested. This assay may for example be performed as follows: • providing purified CD4+ cells (e.g. purified from C57B16 mice); • stimulating said CD4+ cells by addition of anti-CD3 purified antibodies and bone marrow derived dendritic cells; • culturing the cells for about 18 hours; and • analyzing said cells for the expression of the early activation marker CD69, e.g. by flow cytometry; and • comparing CD69 expression in the presence of the compound to be tested.
# The immunosuppressive properties of PepReg (10aa) vs the 23 aa parent peptide were evaluated in vitro. Negatively purified CD4+ cells from C57Bl6 mice were stimulated by soluble anti-CD3 purified antibodies and bone marrow derived dendritic cells. Cells from triplicate wells were analyzed for the expression of the early activation marker CD69 after 18 hours culture in complete RPMI medium supplemented with 10% fetal calf serum.
# [2] = tested on: apolipoprotein E^−/− mice; assay: Angiotensin II infusion into aged apolipoprotein E-/- mice: atherosclerotic lesion size and aneurysm formation; assay type: in vivo, mouse
# Procedure: Male 28-week old apolipoprotein E^−/− mice (n=8-10 mice/group) from our breeding facility were maintained on a regular chow diet and kept under standard conditions. Acceleration of atherosclerosis and aneurysm formation was induced by subcutaneous angiotensin II (Sigma, #A9525) infusion (1 mg/kg/d) for 28 days using osmotic minipumps (Alzet, #2004) as previously described (Daugherty et al. J Clin Invest 105:1605-1612). All experiments were approved by our institutional Ethical committee. Atherosclerotic lesion size was measured as previously described (Caligiuri et al. 2005 Arterioscler Thromb Vasc Biol 25:1659-1664). These experiments were repeated twice with similar results.
# [3] = tested on: spleen cells from CD31^−/− mice; assay: Proliferation in response to TCR stimulation, CD31-/- spleen cells; assay type: cell-based, mouse
# Procedure: (§1) CD8^+ T cell-mediated cytolytic activity against allogeneic mouse aortic smooth muscle cells and measurement of macrophage gelatinase (MMP-2/9) activity were performed as previously described for human cells in Caligiuri et al. (2006 Arterioscler Thromb Vasc Biol 26:618-623) using kits and reagents from Invitrogen. Briefly, primary cultures of FVB/N mouse aorta smooth muscle cells were labelled with the lipophylic tracer DIO (green) and co-cultured for 3 hours with CD8+ T cell-enriched spleen cells from C57Bl/6 mice (n=3 scramble peptide and n=3 peptide 551-574, 50 μM). Cytolysis was evaluated by intracellular accumulation of propidium iodide (PI). Cells were analysed by flow cytometry and the % of cytolysis was calculated by expressing the number of dead (PI+) cells among the target (DIO+) cells. Intracellular MMP-2/9 (gelatinase) activity was measured by flow cytometry in 7-day bone-marrow derived macrophages from C57Bl/6 mice (n=3 scramble peptide and n=3 peptide 551-574, 50 μM) three hours after the incorporation of OregonGreen® gelatine (MFI). T-cell proliferation was performed using either human peripheral blood mononuclear cells of spleen cells from C57Bl/6 (CD31^+/+) and CD31^−/− mice (Charles River France) as previously described (Caligiuri et al. 2005 Arterioscler Thromb Vasc Biol 25:1659-1664). Briefly, cells were plated in triplicates at 0.2×10^6 cells/well in a U bottom 96-well plate in complete medium (RPMI 1640, 1% pyruvate, 1% glutamine, 1% penicillin-streptomicyne-fungizone, 10% decomplemented fetal calf serum, all from Invitrogen) containing 1 μg/ml anti-mouse CD3/CD28 or 5 μg/ml anti-human CD3 antibodies (BD) as appropriate. CD31 (551-574) and scramble peptide at 25, 50 and 100 μM final concentration were deposited in the wells just before cell plating. Plated cells were cultured for 72 hours in 5% CO2 at 37° C. (^3H) thymidine (0.5 μCi/well) was added for the last 16 hours and proliferation evaluated using a Tomtec harvester and analysis on a Wallac micro beta counter. Data are expressed as mean±SEM of cpm in triplicates.
# [4] = tested on: spleen cells from C57Bl/6 (CD31^+/+) mice; assay: Proliferation in response to TCR stimulation, CD31+/+ spleen cells; assay type: cell-based, mouse; conditions: peptide 25, 50, 100 μM, scramble peptide 100 μM
# Procedure: as §1
# [5] = tested on: MMP-2/9 (gelatinase) activity in bone-marrow derived macrophages; assay: Macrophage gelatinase (MMP-2/9) activity; assay type: cell-based, mouse; conditions: peptide 50 μM
# Procedure: (§2) CD8^+ T cell-mediated cytolytic activity against allogeneic mouse aortic smooth muscle cells and measurement of macrophage gelatinase (MMP-2/9) activity were performed as previously described for human cells in Caligiuri et al. (2006 Arterioscler Thromb Vasc Biol 26:618-623) using kits and reagents from Invitrogen. Briefly, primary cultures of FVB/N mouse aorta smooth muscle cells were labelled with the lipophylic tracer DIO (green) and co-cultured for 3 hours with CD8+ T cell-enriched spleen cells from C57Bl/6 mice (n=3 scramble peptide and n=3 peptide 551-574, 50 μM). Cytolysis was evaluated by intracellular accumulation of propidium iodide (PI). Cells were analysed by flow cytometry and the % of cytolysis was calculated by expressing the number of dead (PI+) cells among the target (DIO+) cells. Intracellular MMP-2/9 (gelatinase) activity was measured by flow cytometry in 7-day bone-marrow derived macrophages from C57Bl/6 mice (n=3 scramble peptide and n=3 peptide 551-574, 50 μM) three hours after the incorporation of OregonGreen® gelatine (MFI). […] (^3H) thymidine (0.5 μCi/well) was added for the last 16 hours and proliferation evaluated using a Tomtec harvester and analysis on a Wallac micro beta counter. Data are expressed as mean±SEM of cpm in triplicates.
# [6] = tested on: Spleen cells from C57Bl/6 mice; assay: Calcium mobilisation assay in Fluo-3AM-loaded spleen cells; assay type: cell-based, mouse; conditions: anti-CD3/CD28, peptide 100 μM; compared with anti-CD31 antibody cross-linking
# Procedure: Spleen cells from C57Bl/6 mice were prepared as described in Caligiuri et al. (2005 Arterioscler Thromb Vasc Biol 25:1659-1664). Cells were incubated with Fluo-3AM (Invitrogen, # F1242) as per the instructions of the manufacturer. Fluorescence of calcium-bound tracer was measured in the FITC channel on an LSRII® cytometer (BD Biosciences) prior to and during 60 seconds following the addition of hamster anti-mouse CD3/CD28 monoclonal antibodies (40 μg/ml each) and rat/hamster compBead® (1:50) either alone or in the presence of rat anti-mouse CD31 antibody (clone 390, 10 μg/ml) or in the presence of CD31 peptide 551-574 (100 μM). Negative controls included rat IgG isotype control and scramble peptide. Antibodies and compBeads® were from BD Biosciences.
# [7] = tested on: BALB/c mice primed with TNCB; assay: Delayed type hypersensitivity (DTH) suppression model; assay type: in vivo, mouse
# Procedure: Delayed type hypersensitivity (DTH) suppression was evaluated as described in the “Current Protocols in Immunology (2001) 4.0.1-4.0.2 Unit 4.2”. Briefly, TNCB (2-chloro-1,3,5-trinitrobenzene, Fluka #79874) was dissolved in acetone/olive oil (1:1 v/v) at a concentration of 10 mg/ml. BALB/c mice (n=6/group) were primed by painting the shaved regions of the abdomen a with a total 0.2 ml of the preparation (n=6/group). The experiment included 3 groups for peptide 551-574 (10, 50, 100 μM) and 1 group treated with scramble peptide at 100 μM). Five days after priming, 10 μl of the TNCB-solvent mixture was painted on the right pinna, 30 minutes after subcutaneous (interscapolar) administration of the peptide 551-574 or the scramble peptide. Ear thickness increases were calculated by subtracting the thickness of the right and the left pinna of each mouse (right-left/left×100), measured at 24 h with a dial caliper (“Pocotest”, Kroeplin Längenmesstechnick). The measure was performed 5 times on each ear and averaged for further analysis. The immunosuppressive effect of the peptide was calculated as % suppression=(1−ΔTE/ΔTS)×100, where ΔT=(ear thickness 24 hr after elicitation)−(baseline ear thickness), […]. Data are expressed as mean±SEM.
# [8] = tested on: allogeneic mouse aortic smooth muscle cells; assay: CD8+ T cell-mediated cytolytic activity against allogeneic smooth muscle cells; assay type: cell-based; conditions: peptide 50 μM, 3 hours co-culture
# Procedure: as §2
smiles,measurement,setting,value
CSCC[C@H](NC(=O)[C@H](CO)NC(=O)[C@@H](N)CO)C(=O)N[C@@H](CCCNC(=N)N)C(=O)N[C@H](C(=O)N[C@@H](CO)C(=O)N1CCC[C@H]1C(=O)N[C@@H](CCCNC(=N)N)C(=O)N[C@@H](CO)C(=O)N[C@@H](CO)C(=O)N[C@H](C(=O)N[C@@H](CC(C)C)C(=O)N[C@@H](C)C(=O)N[C@H](C(=O)N[C@@H](CCCNC(=N)N)C(=O)N[C@H](C(=O)N[C@@H](Cc1ccccc1)C(=O)N[C@@H](CC(C)C)C(=O)N[C@@H](C)C(=O)N1CCC[C@H]1C(=O)N[C@@H](Cc1c[nH]c2ccccc12)C(=O)N[C@@H](CCCCN)C(=O)N[C@@H](CCCCN)C(=O)O)C(C)C)C(C)C)[C@@H](C)O)[C@@H](C)O [peptide 551-574] (H-SSMRTSPRSSTLAVRVFLAPWKK-OH),dose at which suppression of CD69 expression was observed,[1],100 µg/mL
same,formation of atherothrombotic abdominal aortic aneurysms (AAA),[2]; daily subcutaneous administration of 50 μM,prevented
same,acceleration of plaque growth in the aortic root,"[2]; daily subcutaneous administration of 50 μM, 28 days angiotensin II",prevented
same,mice with abdominal aortic aneurysm (AAA) present,"[2]; peptide-treated mice, both experiments (Exp #1, Exp #2), controls 8/10 and 6/8",1/8
same,proliferation of CD31-/- spleen cells,"[3]; highest dose, 100 μM",effect at 100 μM dose also on cells lacking CD31
same,proliferation of CD31-/- spleen cells,"[3]; highest dose, 100 μM, listed as mouse CD31 peptide 551-574",only the highest dose of the peptide affect proliferation
same,proliferation of CD31-/- spleen cells,[3]; low dose of the peptide,no effect
same,proliferation of CD31+/+ spleen cells in response to TCR stimulation,[4],inhibits in a dose-dependent manner
same,proliferation of CD31+/+ spleen cells in response to TCR stimulation,[4]; listed as mouse CD31 peptide 551-574,dose-dependent inhibition
same,activity of matrix degrading enzymes (MMP-2/9) in bone-marrow derived macrophages,[5],inhibited
same,inhibition of TCR-induced calcium mobilization,[6],as an efficient immunoregulatory strategy as it is the co-ligation of CD3 and CD28 with the distal portion of CD31
same,immunosuppression in DTH model,[7]; single subcutaneous administration of 50 μM,Effective immunosuppression
same,suppression of distal recall of a hapten-elicited specific immune response (ear thickness),"[7]; single subcutaneous administration, peptide 10, 50, 100 μM, scramble 100 μM",suppressed in a dose-dependent manner
same,CD8+ T cell-dependent cytolysis of murine aortic smooth muscle cells,[8],inhibited
